From PubChem BioAssay (NCI)
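Exposure lasted 48 hours, with cells grown in 96-well plates and compounds tested at five concentrations. The concentration for full growth arrest is given as TGI.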

Assays:
Experiment in all cases: inhibition of tumour cell growth, NCI panel, 48 h
NCI-H23 lung = system: NCI-H23 lung
COLO 205 colon = system: COLO 205 colon
TK-10 renal = system: TK-10 renal
SNB-19 CNS = system: SNB-19 CNS
A498 renal = system: A498 renal
KM20L2 colon = system: KM20L2 colon
U251 CNS = system: U251 CNS
CCRF-CEM leukemia = system: CCRF-CEM leukemia
DMS 273 small cell lung = system: DMS 273 small cell lung
SK-MEL-5 melanoma = system: SK-MEL-5 melanoma
SK-OV-3 ovarian = system: SK-OV-3 ovarian
KM12 colon = system: KM12 colon
CAKI-1 renal = system: CAKI-1 renal
HOP-18 NSCLC = system: HOP-18 NSCLC
SNB-75 CNS = system: SNB-75 CNS
OVCAR-8 ovarian = system: OVCAR-8 ovarian
HCT-116 colon = system: HCT-116 colon
HL-60(TB) leukemia = system: HL-60(TB) leukemia
HOP-62 NSCLC = system: HOP-62 NSCLC
MOLT-4 leukemia = system: MOLT-4 leukemia
LXFL 529 NSCLC = system: LXFL 529 NSCLC
DLD-1 colon = system: DLD-1 colon
M19-MEL melanoma = system: M19-MEL melanoma
NCI-H460 lung = system: NCI-H460 lung
HOP-92 NSCLC = system: HOP-92 NSCLC
HCT-15 colon = system: HCT-15 colon
SK-MEL-28 melanoma = system: SK-MEL-28 melanoma
SR leukemia = system: SR leukemia
SNB-78 CNS = system: SNB-78 CNS
ACHN renal = system: ACHN renal
UACC-257 melanoma = system: UACC-257 melanoma
OVCAR-5 ovarian = system: OVCAR-5 ovarian
SF-268 CNS = system: SF-268 CNS
OVCAR-3 ovarian = system: OVCAR-3 ovarian
RXF-631 renal = system: RXF-631 renal
SF-295 CNS = system: SF-295 CNS
HT29 colon = system: HT29 colon
SW-620 colon = system: SW-620 colon
MALME-3M melanoma = system: MALME-3M melanoma
IGROV1 ovarian = system: IGROV1 ovarian
M14 melanoma = system: M14 melanoma
OVCAR-4 ovarian = system: OVCAR-4 ovarian
NCI-H522 lung = system: NCI-H522 lung
NCI-H226 lung = system: NCI-H226 lung
UO-31 renal = system: UO-31 renal
RPMI-8226 leukemia = system: RPMI-8226 leukemia
LOX IMVI melanoma = system: LOX IMVI melanoma
786-0 renal = system: 786-0 renal
SN12C renal = system: SN12C renal
SF-539 CNS = system: SF-539 CNS
UACC-62 melanoma = system: UACC-62 melanoma
EKVX NSCLC = system: EKVX NSCLC
K-562 leukemia = system: K-562 leukemia
SK-MEL-2 melanoma = system: SK-MEL-2 melanoma
XF 498 CNS = system: XF 498 CNS
A549 NSCLC = system: A549 NSCLC
HCC-2998 colon = system: HCC-2998 colon
RXF 393 renal = system: RXF 393 renal
DMS 114 small cell lung = system: DMS 114 small cell lung

Measured: TGI

CC1=CC(=O)NP(=O)(C23CC4CC(CC(C4)C2)C3)N1 (stereo unspecified)
not listed: A549 NSCLC | HCC-2998 colon | RXF 393 renal | DMS 114 small cell lung
> 100 µM: all other assays above

CCc1cc(Cc2ccc(C)c(NC(=O)C(=O)C3C(=O)NC(=O)NC3=O)c2CC)cc(C)c1NC(=O)C(=O)C1C(=O)NC(=O)NC1=O
not listed: HOP-18 NSCLC | HOP-92 NSCLC | SR leukemia | SF-295 CNS | HT29 colon | NCI-H226 lung | SN12C renal | XF 498 CNS
> 100 µM: all other assays above
